Measurements taken from patent US7855290B2, “Pyridine derivatives and pyrimidine derivatives (3)” (Eisai R&D Management Co., Ltd., priority 2005, dated 2010).
pIC50: −log10 of the molar value.

Legend:
[1] = test system: Human umbilical vein endothelial cells (HUVECs); experiment: Inhibitory activity against the growth of vascular endothelial cells stimulated with hepatocyte growth factor; assay type: cell-based; details: HUVEC, HGF stimulated, third day, Cell Counting Kit-8, read-out: IC50 (cell proliferation activity)
Experimental: Human umbilical vein endothelial cells (HUVECs) were isolated according to the reported method (Shin Seikagaku Jikken Koza, “Cell culturing techniques”, p 197-202), and then cultured in a 5% CO2 incubator (37° C.) using EGM-2 medium (purchased from Clonetics) until the cells reached confluency.
HUVECs were suspended in a serum-free medium for endothelial cell culture (SFM, purchased from GIBCO RBL) containing 2% FBS. The cell suspension (2×10^4 cells/ml) was put in a cell culturing 96-well plate (purchased from NUNC, Production No. 167008) at 0.1 ml/well, and then cultured in a 5% CO2 incubator (37° C.) overnight. After the culture, each well was supplied with 50 μl of the test substance diluted with a 2% FBS-containing serum-free medium for endothelial cell culture and 50 μl of HGF (purchased from R&D) diluted at a concentration of 120 ng/ml with a 2% FBS-containing serum-free medium for endothelial cell culture, followed by culturing in a 5% CO2 incubator (37° C.). On the third day after the addition of the test substance, each well was supplied with 10 μl of Cell Counting Kit-8 (purchased from DOJINDO, Production No. 343-07623), and then the plate was incubated in a 5% CO2 incubator (37° C.) for about 2 hours. After the incubation, using a Plate Reader MTP-500 (Corona Electric), the absorbance of each well was determined at a measurement wavelength of 450 nm and a reference wavelength of 660 nm. While defining the absorbance of a well supplied with HGF and no test substance as 100% cell proliferation activity and the absorbance of the well supplied with no test substance and no HGF as 0% cell proliferation activity, the cell proliferation activity ratio (%) was calculated for each cell.

[2] = test system: Human gastric cancer cells (MKN-45); experiment: Inhibitory activity against the proliferation of human gastric cancer cells (MKN-45); assay type: cell-based; details: 72 h, MKN-45, 1% FBS RPMI1640, 3 days, Cell Counting Kit-8
Experimental: Human gastric cancer cells (MKN-45) were suspended in a 1% FBS-containing RPMI1640 medium (purchased from Sigma). The cell suspension (1×10^4 cells/ml) was added in a 96-well plate for cell culture (purchased from NUNC, Production No. 167008) at 0.1 ml/well, and then cultured in a 5% CO2 incubator (37° C.) overnight. After the culture, each well was supplied with 0.1 ml of a test substance diluted with a 1% FBS-containing RPMI1640 medium, followed by culturing in a 5% CO2 incubator (37° C.) for 3 days. After the culture, each well was supplied with 10 μl of Cell Counting Kit-8 (purchased from DOJINDO, Production No. 343-07623), followed by incubation in a 5% CO2 incubator (37° C.) for about 1.5 hrs. After the incubation, using the Plate Reader MTP-500 (Corona Electric), the absorbance of each well was determined at a measurement wavelength of 450 nm and a reference wavelength of 660 nm.

SMILES: CN1CCN(C2CCN(C(=O)Nc3cc(Oc4ccc(NC(=O)C5(C(=O)Nc6ccc(F)cc6)CC5)c(F)c4)ccn3)CC2)CC1 [Example 15, N-(2-Fluoro-4-{[2-({[4-(4-methylpiperazin-1-yl)piperidin-1-yl]carbonyl}amino)pyridin-4-yl]oxy}phenyl)-N′-(4-fluorophenyl)cyclopropane-1,1-dicarboxamide]
- pIC50 [1]: 7.82
- pIC50 [2]: 7.77
